Experimental findings from US20260008787A1, “FUSED RING KRAS INHIBITORS FOR TREATING DISEASE” (BLOSSOMHILL THERAPEUTICS, INC., priority 2022, published 2026) are described below.

One assay deals with SW620 (KRAS G12V). Briefly: Cell proliferation assay (CellTiter-Glo, 72 hours), SW620. It counts as cell-based. To be noted: Homo sapiens, SW-620, 72 h, 384-well, CellTiter-Glo 2.0. On the procedure:
(§1) Two thousand KRAS mutant cells per well were seeded in 384-well white plate and then treated with indicated compounds for 72 hours at 37° C. and 5% CO2. Cell proliferation was measured using CellTiter-Glo 2.0 luciferase-based ATP detection assay (Promega, Madison, WI) following the manufacturer's protocol. IC50 values were determined using Prism software (GraphPad Software, San Diego, CA).
(Cellular ATP, detected with luciferase, serves as a proxy for viable cell number.)

A further assay relates to GP2D (KRAS G12D). Briefly: Cell proliferation assay (CellTiter-Glo, 72 hours), GP2D. To be noted: GP2d, 72 h, 384-well, CellTiter-Glo 2.0. It counts as cell-based. On the procedure:
as §1

For the next assay, the target named is KRAS G12V (Homo sapiens, UniProt P01116, G12V). Briefly: biochemical.
For a further assay, the system named is AGS (G12D). Briefly: Cell proliferation assay (CellTiter-Glo, 72 hours), AGS. It counts as cell-based. To be noted: 72 h, 384-well, CellTiter-Glo 2.0. On the procedure:
as §1

The target in another assay is KRAS G12D (Homo sapiens, UniProt P01116, G12D). Briefly: biochemical.

pIC50: −log10 of the molar value.

Sequence of KRAS G12V (P01116 1-188 isoform P01116-2 G12V): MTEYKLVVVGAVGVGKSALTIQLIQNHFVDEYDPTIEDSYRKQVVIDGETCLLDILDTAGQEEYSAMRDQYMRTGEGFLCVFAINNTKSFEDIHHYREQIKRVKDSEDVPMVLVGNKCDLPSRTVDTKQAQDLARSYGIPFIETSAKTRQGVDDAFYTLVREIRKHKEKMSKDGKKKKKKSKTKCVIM
Sequence of KRAS G12D (P01116 1-188 isoform P01116-2 G12D): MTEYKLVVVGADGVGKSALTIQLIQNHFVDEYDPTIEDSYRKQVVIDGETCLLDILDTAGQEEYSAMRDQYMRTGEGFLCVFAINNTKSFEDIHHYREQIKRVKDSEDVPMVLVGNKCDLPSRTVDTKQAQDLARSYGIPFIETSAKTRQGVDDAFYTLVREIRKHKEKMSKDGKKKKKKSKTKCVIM

Take `C#Cc1c(F)ccc2cc(O)cc(-c3nc4c5c(nc(OC[C@@]67CCCN6C[C@H](F)C7)nc5c3F)N(Cc3ccccc3)[C@@H](C)CO4)c12` [Example 74, 4-[(9S)-10-benzyl-4-fluoro-2-{[(2R,7aS)-2-fluorotetrahydro-1H-pyrrolizin-7a(5H)-yl]methoxy}-9-methyl-9,10-dihydro-8H-7-oxa-1,3,6,10-tetraazacyclohepta[1,2,3-de]naphthalen-5-yl]-5-ethynyl-6-fluoronaphthalen-2-ol]: the pIC50 (as a rule, −log10 of the IC50, conventionally taken in molar units) in the assay on SW620 (KRAS G12V) was 6.46; in the assay with GP2D (KRAS G12D) it was 6.32; on KRAS G12V, 8.55; in the assay on AGS (G12D), 5.83; on KRAS G12D, 8.40.

On to `CCc1c(F)ccc2cc(O)cc(-c3nc4c5c(nc(OC[C@@]67CCCN6C[C@H](F)C7)nc5c3F)N3CCCC[C@H]3C(C)O4)c12` (stereo partly drawn) [Example 75, 5-ethyl-6-fluoro-4-((5aS)-1-fluoro-11-(((2R,7aS)-2-fluorotetrahydro-1H-pyrrolizin-7a(5H)-yl)methoxy)-5-methyl-5,5a,6,7,8,9-hexahydro-4-oxa-3,9a, 10,12-tetraazabenzo[4,5]cyclohepta[1,2,3-de]naphthalen-2-yl)naphthalen-2-ol], for which the negative-log IC50 (pIC50) is 6.15 in the assay with SW620 (KRAS G12V); 6.46 in the assay with GP2D (KRAS G12D); 8.80 against KRAS G12V; 5.79 in the assay with AGS (G12D); 8.75 against KRAS G12D.

In the case of `Fc1c(-c2c(Cl)ccc3[nH]ncc23)nc2c3c(nc(OC[C@@]45CCCN4C[C@H](F)C5)nc13)N1CCCC[C@H]1CO2` [Example 78, (7S)-12-(5-chloro-1H-indazol-4-yl)-13-fluoro-16-[[(2R,8S)-2-fluoro-1,2,3,5,6,7-hexahydropyrrolizin-8-yl]methoxy]-9-oxa-2,11,15,17-tetrazatetracyclo [8.7.1.02,7.014,18]octadeca-1 (17),10 (18),11,13,15-pentaene], the pIC50 was < 5.52 in the assay with SW620 (KRAS G12V); < 5.52 in the assay on GP2D (KRAS G12D); 7.28 against KRAS G12V; < 5.52 with AGS (G12D); 7.40 against KRAS G12D.

Consider `C#Cc1c(F)ccc2cc(O)cc(-c3nc4c5c(nc(OCC67CCCN6C/C(=C/F)C7)nc5c3F)N3CCCC[C@H]3CO4)c12` (stereo partly drawn) [Example 79, 5-ethynyl-6-fluoro-4-[(8aS)-4-fluoro-2-{[(2E)-2-(fluoromethylidene)tetrahydro-1H-pyrrolizin-7a(5H)-yl]methoxy}-8,8a,9,10,11,12-hexahydro-7-oxa-1,3,6,12a-tetraazabenzo[4,5]cyclohepta[1,2,3-de]naphthalen-5-yl]naphthalen-2-ol], for which the negative-log IC50 (pIC50) with SW620 (KRAS G12V) was 7.95; in the assay with GP2D (KRAS G12D) it was 8.65; on KRAS G12V, 8.77; with AGS (G12D), 8.48; against KRAS G12D, 8.78.

Consider `C#Cc1c(F)ccc2cc(O)cc(-c3nc4c5c(nc(OC[C@@]67CCCN6C[C@H](F)C7)nc5c3F)NCCO4)c12` [Example 82, 5-ethynyl-6-fluoro-4-(4-fluoro-2-{[(2R,7aS)-2-fluorotetrahydro-1H-pyrrolizin-7a(5H)-yl]methoxy}-9,10-dihydro-8H-7-oxa-1,3,6,10-tetraazacyclohepta[1,2,3-de]naphthalen-5-yl)naphthalen-2-ol], for which the pIC50 with SW620 (KRAS G12V) was < 5.52; with GP2D (KRAS G12D), 6.33; against KRAS G12V it was 8.55; in the assay on AGS (G12D) it was 5.84; on KRAS G12D, 8.58.

Take `N#Cc1c(N)sc2c(F)ccc(-c3nc4c5c(nc(OC[C@@]67CCCN6C[C@H](F)C7)nc5c3F)N3CCCC[C@H]3CO4)c12` [Example 85, 2-amino-7-fluoro-4-[(8aS)-4-fluoro-2-{[(2R,7aS)-2-fluorotetrahydro-1H-pyrrolizin-7a(5H)-yl]methoxy}-8,8a,9,10,11,12-hexahydro-7-oxa-1,3,6,12a-tetraazabenzo[4,5]cyclohepta[1,2,3-de]naphthalen-5-yl]-1-benzothiophene-3-carbonitrile]: the negative-log IC50 (pIC50) was 6.09 in the assay with SW620 (KRAS G12V); 6.84 in the assay on GP2D (KRAS G12D); 8.66 against KRAS G12V; 6.20 in the assay on AGS (G12D); 8.63 against KRAS G12D.

As to `C#Cc1c(F)ccc2cc(F)cc(-c3nc4c5c(nc(OC[C@@]67CCCN6C[C@H](F)C7)nc5c3F)N3CCCC[C@H]3CO4)c12` [Example 89, (7S)-12-(8-ethynyl-3,7-difluoro-1-naphthyl)-13-fluoro-16-[[(2R,8S)-2-fluoro-1,2,3,5,6,7-hexahydropyrrolizin-8-yl]methoxy]-9-oxa-2,11,15,17-tetrazatetracyclo[8.7.1.02,7.014,18]octadeca-1 (17),10 (18),11,13,15-pentaene], the pIC50 in the assay with SW620 (KRAS G12V) is < 5.52; with GP2D (KRAS G12D), 5.93; on KRAS G12V it was 8.38; in the assay on AGS (G12D), < 5.52; at KRAS G12D it was 8.41.

Regarding `C#Cc1c(F)ccc2cc(O)cc(-c3nc4c5c(nc(OC[C@@]67CCCN6C[C@H](F)C7)nc5c3F)N(C)C3(CC3)CO4)c12` [Example 93], the pIC50 in the assay on SW620 (KRAS G12V) is 6.01; in the assay on GP2D (KRAS G12D) it was 6.85; against KRAS G12V, 8.81; with AGS (G12D), 6.25; against KRAS G12D it was 8.70.

As for `C#Cc1c(F)ccc2cc(O)cc(-c3nc4c5c(nc(OC[C@@]67CCCN6C[C@H](F)C7)nc5c3F)N(C)[C@@H](CC)CO4)c12` [Example 96, 4-[(9S)-9-ethyl-4-fluoro-2-{[(2R,7aS)-2-fluorotetrahydro-1H-pyrrolizin-7a(5H)-yl]methoxy}-10-methyl-9,10-dihydro-8H-7-oxa-1,3,6,10-tetraazacyclohepta[1,2,3-de]naphthalen-5-yl]-5-ethynyl-6-fluoronaphthalen-2-ol], the pIC50 was 7.03 in the assay on SW620 (KRAS G12V); 7.77 in the assay on GP2D (KRAS G12D); 8.61 at KRAS G12V; 7.08 in the assay with AGS (G12D); 8.62 against KRAS G12D.

`CCc1c(F)ccc2cc(O)cc(-c3nc4c5c(nc(OC[C@@]67CCCN6C[C@H](F)C7)nc5c3F)N(C)[C@@H](CC)CO4)c12` [Example 99]: the negative-log IC50 (pIC50) with SW620 (KRAS G12V) is 7.01; in the assay with GP2D (KRAS G12D), 7.65; against KRAS G12V, 8.99; in the assay with AGS (G12D) it was 7.06; against KRAS G12D, 9.07.

Consider `C#Cc1c(F)ccc2cc(O)cc(-c3nc4c5c(nc(OC[C@@]67CCCN6C[C@H](F)C7)nc5c3F)N3CCCC(O4)C3CO)c12` (stereo partly drawn) [Example 104], for which the pIC50 was 6.04 in the assay with SW620 (KRAS G12V); 6.72 in the assay with GP2D (KRAS G12D); 8.05 at KRAS G12V; 6.18 in the assay on AGS (G12D); 8.12 against KRAS G12D.

Turning to `C#Cc1c(F)ccc2cc(O)cc(-c3nc4c5c(nc(OC[C@@]67CCCN6C[C@H](F)C7)nc5c3F)N3CC=CC[C@H]3CO4)c12` [Example 106, 5-ethynyl-6-fluoro-4-[(7S)-13-fluoro-16-[[(2R,8S)-2-fluoro-1,2,3,5,6,7-hexahydropyrrolizin-8-yl]methoxy]-9-oxa-2,11,15,17-tetrazatetracyclo [8.7.1.0^2,7.0^14,18]octadeca-1 (17),4,10 (18),11,13,15-hexaen-12-yl]naphthalen-2-ol], the pIC50 was 7.19 with SW620 (KRAS G12V); 7.84 in the assay with GP2D (KRAS G12D); 8.42 against KRAS G12V; 7.31 with AGS (G12D); 8.49 against KRAS G12D.

For `C#Cc1c(F)ccc2cc(O)cc(-c3nc4c5c(nc(OC[C@@]67CCCN6C[C@H](F)C7)nc5c3F)N3CC(C#N)CCC3CO4)c12` (stereo partly drawn) [Example 109, 5-(8-ethynyl-7-fluoro-3-hydroxynaphthalen-1-yl)-4-fluoro-2-{[(2R,7aS)-2-fluorotetrahydro-1H-pyrrolizin-7a(5H)-yl]methoxy}-8,8a,9,10,11,12-hexahydro-7-oxa-1,3,6,12a-tetraazabenzo[4,5]cyclohepta[1,2,3-de]naphthalene-11-carbonitrile], the pIC50 was < 5.52 in the assay with SW620 (KRAS G12V); 5.70 in the assay with GP2D (KRAS G12D); 7.57 against KRAS G12V; < 5.52 with AGS (G12D); 7.80 at KRAS G12D.

Consider `C#Cc1c(F)ccc2cc(O)cc(-c3nc4c5c(nc(OC[C@@]67CCCN6C[C@H](F)C7)nc5c3F)N3CC(C(N)=O)CCC3CO4)c12` (stereo partly drawn) [Example 110, 5-(8-ethynyl-7-fluoro-3-hydroxynaphthalen-1-yl)-4-fluoro-2-{[(2R,7aS)-2-fluorotetrahydro-1H-pyrrolizin-7a(5H)-yl]methoxy}-8,8a,9,10,11,12-hexahydro-7-oxa-1,3,6,12a-tetraazabenzo[4,5]cyclohepta[1,2,3-de]naphthalene-11-carboxamide], for which the pIC50 is < 5.52 in the assay with SW620 (KRAS G12V); < 5.52 with GP2D (KRAS G12D); < 5.00 against KRAS G12V; < 5.52 in the assay with AGS (G12D); < 5.00 against KRAS G12D.

For `CC[C@H]1COc2nc(-c3cc(O)cc4ccc(F)c(Cl)c34)c(F)c3nc(OC[C@@]45CCCN4C[C@H](F)C5)nc(c23)N1C` [Example 111, 5-chloro-4-[(9S)-9-ethyl-4-fluoro-2-{[(2R,7aS)-2-fluorotetrahydro-1H-pyrrolizin-7a(5H)-yl]methoxy}-10-methyl-9,10-dihydro-8H-7-oxa-1,3,6,10-tetraazacyclohepta[1,2,3-de]naphthalen-5-yl]-6-fluoronaphthalen-2-ol], the negative-log IC50 (pIC50) in the assay on SW620 (KRAS G12V) was 6.30; with GP2D (KRAS G12D), 7.22; against KRAS G12V it was 8.85; with AGS (G12D), 6.44; against KRAS G12D, 8.89.
